Assay results published in US9597407B2, “Targeted antimicrobial moieties” (C3 Jian, Inc., priority 2009, dated 2017).

System: microorganisms
Experiment: Morphology, biofilm and growth disruption by peptides (Table 5)
Format: cell-based
Set-up: key: A: Peptide aggregates; B: Less hyphal formation; Clumps; Diffuse clumps and small polyps; F: Diffuse growth; H: Thin; I: Growth inhibition; Microcolony formation; Rippled; Small polyps; Thick; W: Halo formation on top, microlonies on bottom
Excerpt: In certain embodiments peptides that induce alterations in phenotype or other biological activities can also be used as antimicrobial effector moieties.

Substance	Organism, effect (C. jeikeium)	Organism, effect (M. luteus)	Organism, effect (MRSA)	Organism, effect (S. epidermidis)	further results
PF-001 (chain 1 MNNWIIVAQLSVTVINEIIDIMKEKQKGGK; chain 2 MNNWIIVAQLSVTVINEIIDIMKEKQKGGK; Peptide with targeting and/or antimicrobial activity)	C. jeikeium (D)	M. luteus (C)	MRSA (R)	S. epidermidis (C)	
PF-004 (chain 1 ARLSKAIIIAVIVVYHLDVRGLF; chain 2 ARLSKAIIIAVIVVYHLDVRGLF; Peptide with targeting and/or antimicrobial activity)	C. jeikeium (A)	M. luteus (A)	MRSA (R)	S. epidermidis (A)	
PF-019 (NDTNK; Peptide with targeting and/or antimicrobial activity)			MRSA (M)		
PF-032 (RIVVPAHQSNMASTPNLSITP; Peptide with targeting and/or antimicrobial activity)	C. jeikeium (C)			S. epidermidis (S)	
PF-059 (TITLKAGIERALHEEVPGVIEVEQVF; Peptide with targeting and/or antimicrobial activity)					Organism, effect (C. jejuni): C. jejuni (C)
PF-067 (DLIVKVHICFVVKTASGYCYLNKREAQAAI; Peptide with targeting and/or antimicrobial activity)	C. jeikeium (D)	M. luteus (R)	MRSA (M)	S. epidermidis (D)	Organism, effect (B. subtilis): B. subtilis (C); Organism, effect (C. jejuni): C. jejuni (D); Organism, effect (P. aeruginosa): P. aeruginosa (A); Organism, effect (S. pneumoniae): S. pneumoniae (D)
PF-076 (LYQYELLSKEEYLKCTLIINQRRNEQK; Peptide with targeting and/or antimicrobial activity)	C. jeikeium (A)	M. luteus (A)	MRSA (R)	S. epidermidis (S)	
PF-125 (YVVGALVILAVAGLIYSMLRKA; Peptide with targeting and/or antimicrobial activity)		M. luteus (C)		S. epidermidis (D)	
PF-139 (ALSKPAIQARTLCRRQDPP; Peptide with targeting and/or antimicrobial activity)	C. jeikeium (R)	M. luteus (C)		S. epidermidis (M)	
PF-140 (FHRRVIRASEWALTTRSFSTPLRSAAR; Peptide with targeting and/or antimicrobial activity)	C. jeikeium (D)	M. luteus (R)	MRSA (M)	S. epidermidis (D)	Organism, effect (C. albicans): C. albicans (B); Organism, effect (C. jejuni): C. jejuni (D); Organism, effect (P. aeruginosa): P. aeruginosa (A); Organism, effect (S. pneumoniae): S. pneumoniae (D)
PF-145 (GIVLTGRAGLVSGACSMALGVGLG; Peptide with targeting and/or antimicrobial activity)	C. jeikeium (R)	M. luteus (A)	MRSA (M)	S. epidermidis (D)	Organism, effect (B. subtilis): B. subtilis (C); Organism, effect (C. jejuni): C. jejuni (R); Organism, effect (S. pneumoniae): S. pneumoniae (R)
PF-157 (HTAVVWLAGVSGCVALSHCEPA; Peptide with targeting and/or antimicrobial activity)				S. epidermidis (M)	
PF-178 (EVYSSPTNNVAITVQNN; Peptide with targeting and/or antimicrobial activity)			MRSA (M)	S. epidermidis (D)	Organism, effect (E. coli): E. coli (C); Organism, effect (S. pneumoniae): S. pneumoniae (D)
PF-190 (HFILRKPLLFMIHSLKTGPLDRF; Peptide with targeting and/or antimicrobial activity)	C. jeikeium (R)			S. epidermidis (C)	
PF-196 (TTARYIRRQCHTSITPLSQG; Peptide with targeting and/or antimicrobial activity)	C. jeikeium (R)			S. epidermidis (C)	
PF-199 (FPAFSFGAIAGSVSVAR; Peptide with targeting and/or antimicrobial activity)	C. jeikeium (R)	M. luteus (A)		S. epidermidis (C)	
PF-203 (SWKCHHLAI; Peptide with targeting and/or antimicrobial activity)	C. jeikeium (R)			S. epidermidis (A)	
PF-220 (VDPADDGTRHIRPEDGDPIEIDE; Peptide with targeting and/or antimicrobial activity)					Organism, effect (S. pneumoniae): S. pneumoniae (H)
PF-250 (SEDIFGRLANEKANGLEELRKIRLKQ; Peptide with targeting and/or antimicrobial activity)		M. luteus (T)			
PF-264 (MQSLSNRQSLIASYILMGIFLSFGYPPASLSKFFCRLSHL; Peptide with targeting and/or antimicrobial activity)		M. luteus (H)			

Substance	Organism, effect (C. jeikeium)	Organism, effect (M. luteus)	Organism, effect (MRSA)	Organism, effect (S. epidermidis)	further results
PF-274 (SIQEAEKIIKNDPFYIHDVADYDFMWFEPSKSLEEIKEFV; Peptide with targeting and/or antimicrobial activity)		M. luteus (M)			
PF-290 (MVHDMTNGTLIIVKH; Peptide with targeting and/or antimicrobial activity)				S. epidermidis (C)	
PF-293 (YDPLK; Peptide with targeting and/or antimicrobial activity)				S. epidermidis (C)	
PF-296 (GAFGMPSIKTNTICGEKGKFISACDAWLSNLK; Peptide with targeting and/or antimicrobial activity)				S. epidermidis (C)	Organism, effect (B. subtilis): B. subtilis (C)
PF-303 (EYPWSWISEPWPWDKSFYK; Peptide with targeting and/or antimicrobial activity)					Organism, effect (B. subtilis): B. subtilis (C)
PF-310 (GVALIGTILVPLLSGLFG; Peptide with targeting and/or antimicrobial activity)				S. epidermidis (C)	
PF-318 (MGRHLWNPSYFVATVSENTEEQIRKYINNQKKQVK; Peptide with targeting and/or antimicrobial activity)				S. epidermidis (C)	Organism, effect (B. subtilis): B. subtilis (C)
PF-335 (AAYPIEDWSDWYEDFFIMLSNI; Peptide with targeting and/or antimicrobial activity)				S. epidermidis (C)	Organism, effect (B. subtilis): B. subtilis (C)
PF-339 (KKIDILINKYMYLSK; Peptide with targeting and/or antimicrobial activity)				S. epidermidis (C)	Organism, effect (B. subtilis): B. subtilis (C)
PF-342 (AFSGVYKTLIVYTRRK; Peptide with targeting and/or antimicrobial activity)				S. epidermidis (C)	Organism, effect (B. subtilis): B. subtilis (C)
PF-347 (GIFTGVTVVVSLKHC; Peptide with targeting and/or antimicrobial activity)			MRSA (C)	S. epidermidis (C)	Organism, effect (E. coli): E. coli (C); Organism, effect (E. faecalis): E. faecalis (C)
PF-398 (ILVVLAGILLVVLSYVGISKFKMNC; Peptide with targeting and/or antimicrobial activity)			MRSA (C)	S. epidermidis (C)	Organism, effect (E. coli): E. coli (C); Organism, effect (E. faecalis): E. faecalis (C)
PF-399 (FPIISALLGAIICIAIYSFIVNRKA; Peptide with targeting and/or antimicrobial activity)			MRSA (C)	S. epidermidis (C)	Organism, effect (E. coli): E. coli (C); Organism, effect (E. faecalis): E. faecalis (C)
PF-407 (KPKNKKEKTVISYEKLLSMY; Peptide with targeting and/or antimicrobial activity)			MRSA (C)	S. epidermidis (M)	Organism, effect (E. faecalis): E. faecalis (R); Organism, effect (S. pneumoniae): S. pneumoniae (R)
PF-410 (FALELIALCRNLFIVYFP; Peptide with targeting and/or antimicrobial activity)			MRSA (M)	S. epidermidis (C)	Organism, effect (E. coli): E. coli (S); Organism, effect (E. faecalis): E. faecalis (C)
PF-411 (WVAVAILLNIALQTQLT; Peptide with targeting and/or antimicrobial activity)			MRSA (D)	S. epidermidis (C)	Organism, effect (C. jejuni): C. jejuni (D); Organism, effect (E. coli): E. coli (C); Organism, effect (E. faecalis): E. faecalis (D); Organism, effect (P. aeruginosa): P. aeruginosa (A); Organism, effect (S. pneumoniae): S. pneumoniae (D)
PF-415 (MIDVTIGQKSKTGAFNASYSICFSGENFSF; Peptide with targeting and/or antimicrobial activity)					Organism, effect (S. pneumoniae): S. pneumoniae (D)
PF-418 (FFLVHFYIRKRKGKVSIFLNYF; Peptide with targeting and/or antimicrobial activity)			MRSA (D)	S. epidermidis (M)	Organism, effect (C. jejuni): C. jejuni (D); Organism, effect (E. coli): E. coli (C); Organism, effect (E. faecalis): E. faecalis (D); Organism, effect (S. pneumoniae): S. pneumoniae (D)
PF-419 (VVTGKVGSLPQIK; Peptide with targeting and/or antimicrobial activity)					Organism, effect (S. pneumoniae): S. pneumoniae (H)
